Assay results from ChEMBL document CHEMBL1127714, “Vasorelaxant activity of 2-fluoromethylbenzopyran K+ channel openers” (Bioorg Med Chem Lett, 1994).
pEC50: −log10 of the molar value.

Legend:
[1] = organism: Rattus norvegicus; experiment: Negative logarithm of the molar concentration required to relax rat aorta precontracted with 30 mM KCL by 50% of intrinsic activity; type: functional
[2] = organism: Rattus norvegicus; experiment: Intrinsic activity determined in rat aorta; type: functional

Row | Structure (SMILES) | pEC50 [1] | IA [2] [%]
1 | O=c1ccccn1C1=CC(CF)(CF)Oc2ccc(C(F)(F)C(F)(F)F)cc21 | 8.53 | 69.2
2 | O=C1CCCN1[C@@H]1c2cc(C(F)(F)C(F)(F)F)ccc2OC(CF)(CF)[C@H]1O | 8.20 | 77.6
3 | O=C1CCCN1C1=CC(CF)(CF)Oc2ccc([N+](=O)[O-])cc21 | 8.11 | 74.3
4 | N#Cc1ccc2c(c1)[C@@H](n1ccccc1=O)[C@H](O)C(CF)(CF)O2 | 6.83 | 78.7
5 | CC1(C)C=C(n2ccccc2=O)c2cc(C#N)ccc2O1 [BIMAKALIM] | 7.52 | 70.2
6 | O=C1CCCCN1C1=CC(CF)(CF)Oc2ccc([N+](=O)[O-])cc21 | 7.76 | 69.7
7 | N#Cc1ccc2c(c1)C(n1ccccc1=O)=CC(CF)(CF)O2 | 7.61 | 75.7
8 | [O-][n+]1ccccc1C1=CC(CF)(CF)Oc2ccc(C(F)(F)C(F)(F)F)cc21 | 8.77 | 68.2
9 | N#Cc1ccc2c(c1)C(N1CCCCC1=O)=CC(CF)(CF)O2 | 6.79 | 68.7
10 | O=c1ccccn1[C@@H]1c2cc([N+](=O)[O-])ccc2OC(CF)(CF)[C@H]1O | 7.54 | 74.5
11 | O=C1CCCCN1[C@@H]1c2cc([N+](=O)[O-])ccc2OC(CF)(CF)[C@H]1O | 8.56 | 63.3
12 | CC(N/C(=N\C#N)Nc1ccncc1)C(C)(C)C (configuration not stated) [PINACIDIL ANHYDROUS] |  | 91.9
13 | O=c1ccccn1[C@@H]1c2cc(C(F)(F)C(F)(F)F)ccc2OC(CF)(CF)[C@H]1O | 7.92 | 82.8
14 | N#Cc1ccc2c(c1)[C@@H](N1CCCC1=O)[C@H](O)C(CF)(CF)O2 | 7.07 | 78
15 | O=C1CCCN1C1=CC(CF)(CF)Oc2ccc(C(F)(F)C(F)(F)F)cc21 | 8.82 | 68.6
16 | O=C1CCCCN1C1=CC(CF)(CF)Oc2ccc(C(F)(F)C(F)(F)F)cc21 | 8.25 | 72
17 | N#Cc1ccc2c(c1)C(N1CCCC1=O)=CC(CF)(CF)O2 | 6.99 | 74.4
18 | O=c1ccccn1C1=CC(CF)(CF)Oc2ccc([N+](=O)[O-])cc21 | 8.61 | 64.9
19 | CC1(C)Oc2ccc(C#N)cc2[C@@H](N2CCCC2=O)[C@@H]1O [CROMAKALIM] |  | 74.7
20 | O=C1CCCCN1[C@@H]1c2cc(C(F)(F)C(F)(F)F)ccc2OC(CF)(CF)[C@H]1O | 8.41 | 65.6
21 | O=C1CCCN1[C@@H]1c2cc([N+](=O)[O-])ccc2OC(CF)(CF)[C@H]1O | 7.62 | 72.7
22 | N#Cc1ccc2c(c1)[C@@H](N1CCCCC1=O)[C@H](O)C(CF)(CF)O2 | 8.05 | 74.9
